{
  "source": "patent US20250049727A1",
  "about": "“COMPOSITIONS FOR THE DELIVERY OF PAYLOAD MOLECULES TO AIRWAY EPITHELIUM” (ModernaTX, Inc., priority 2021, published 2025)",
  "test": "Nanoparticle zeta potential (Malvern Zetasizer Nano ZS)",
  "type": "physicochemical",
  "details": "LNP with sterol amine, core LNP Compound 18, DSPC, Cholesterol, and DMG-PEG 2K, [mRNA] 0.01 mg/mL in 0.1×PBS",
  "experimental": "LNPs were prepared according to Example 2. Zeta potential was measured by diluting LNPs to [mRNA] 0.01 mg/mL in 0.1×PBS on a Malvern Zetasizer (Nano ZS).",
  "note": "Structures can show the parent of a compound that is named as a salt.",
  "data": [
    {"compound": "CC(C)CCC[C@@H](C)[C@H]1CC[C@H]2[C@@H]3CC=C4C[C@@H](OC(=O)CCC(=O)N(CCCN)CCCCN)CC[C@]4(C)[C@H]3CC[C@]12C", "note": "[SA31, (3S,8S,9S,10R,13R,14S,17R)-10,13-Dimethyl-17-((R)-6-methylheptan-2-yl)-2,3,4,7,8,9,10,11,12,13,14,15,16,17-tetradecahydro-1H-cyclopenta[a]phenanthren-3-yl 4-((4-aminobutyl)(3-aminopropyl)amino)-4-oxobutanoate dihydrochloride]", "values": [
      {"measurement": "Zeta Potential", "setting": "β-sitosterol", "value": 8.6, "unit": "mV"}
    ]},
    {"compound": "CC(C)CCC[C@@H](C)[C@H]1CC[C@H]2[C@@H]3CC=C4C[C@@H](OC(=O)N(CCCN)CCCCN)CC[C@]4(C)[C@H]3CC[C@]12C", "note": "[SA29, (3S,8S,9S,10R,13R,14S,17R)-10,13-Dimethyl-17-((R)-6-methylheptan-2-yl)-2,3,4,7,8,9,10,11,12,13,14,15,16,17-tetradecahydro-1H-cyclopenta[a]phenanthren-3-yl (4-aminobutyl)(3-aminopropyl)carbamate dihydrochloride]", "values": [
      {"measurement": "Zeta Potential", "setting": "β-sitosterol", "value": 8.3, "unit": "mV"}
    ]},
    {"compound": "CC(C)CCC[C@@H](C)[C@H]1CC[C@H]2[C@@H]3CC=C4C[C@@H](OC(=O)NCCCNCCCCN)CC[C@]4(C)[C@H]3CC[C@]12C", "note": "[SA30, (3S,8S,9S,10R,13R,14S,17R)-10,13-Dimethyl-17-((R)-6-methylheptan-2-yl)-2,3,4,7,8,9,10,11,12,13,14,15,16,17-tetradecahydro-1H-cyclopenta[a]phenanthren-3-yl (3-((4-aminobutyl)amino)propyl)carbamate dihydrochloride]", "values": [
      {"measurement": "Zeta Potential", "setting": "β-sitosterol", "value": 8.7, "unit": "mV"}
    ]},
    {"compound": "CC(C)CCC[C@@H](C)[C@H]1CC[C@H]2[C@@H]3CC=C4C[C@@H](OC(=O)N(CCCN)CCCCNCCCN)CC[C@]4(C)[C@H]3CC[C@]12C", "note": "[SA3, (3S,8S,9S,10R,13R,14S,17R)-10,13-dimethyl-17-((R)-6-methylheptan-2-yl)-2,3,4,7,8,9,10,11,12,13,14,15,16,17-tetradecahydro-1H-cyclopenta[a]phenanthren-3-yl (3-aminopropyl)(4-((3-aminopropyl)amino)butyl)carbamate, trihydrochloride salt]", "values": [
      {"measurement": "Zeta Potential", "value": 10.6, "unit": "mV"}
    ]},
    {"compound": "CC(C)CCC[C@@H](C)[C@H]1CC[C@H]2[C@@H]3CC=C4C[C@@H](OC(=O)NCCNC(=N)N)CC[C@]4(C)[C@H]3CC[C@]12C", "note": "[SA23, (3S,8S,9S,10R,13R,14S,17R)-10,13-dimethyl-17-((R)-6-methylheptan-2-yl)-2,3,4,7,8,9,10,11,12,13,14,15,16,17-tetradecahydro-1H-cyclopenta[a]phenanthren-3-yl (2-guanidinoethyl)carbamate, hydrochloride salt]", "values": [
      {"measurement": "Zeta Potential", "setting": "β-sitosterol", "value": 12.7, "unit": "mV"}
    ]}
  ]
}
